Measurements from US12364702B2, “Highly active sting protein agonist compound” (ADLAI NORTYE BIOPHARMA CO., LTD., priority 2018, dated 2025).

Legend:
Format in all cases: cell-based
STING WT variant = biological target: T1, STING WT variant (Homo sapiens, UniProt Q86WV6); test: SEAP reporter assay in HEK-Blue ISG KO-STING cells transfected with STING WT variant (Method 1); settings: 1 ng STING vector, compound 2.5 uM, 24 h, SEAP signal vs 0.5% DMSO
T1 construct: host or cells: HEK-Blue ISG KO-STING cells (Invivogen, hkb-kostg)
Text: (§1) Activation of STING can be determined using a SEAP reporter assay in HEK-Blue™ ISG KO-STING cells (Invivogen, cat #hkb-kostg) transfected with plasmids expressing STING variants (WT & HAQ) (referred to WO2017/175147A1). STING variants (WT & HAQ) vector were constructed based on STING-232H vector (Origene, RC208418). GFP vector (VT2069) was bought from Youbio. The detailed protocol as follows: HEK-Blue™ ISG KO-STING cells were harvest and seeding into 96 well plate, the final cell number was 0.8×10^5 cells/well. Transfections were prepared using Lipofectamine 2000 (Invitrogen, Cat #11668-027) following the manufacturer's instructions (Lipo2000/DNA=1/10), 20 ul of transfection suspension containing 1 ng STING vector was added to cell culture plate and incubated at 37° C., 5% CO2 for 24 hours. After 24 hours' incubation, compounds were added at proper concentration, and the final DMSO concentration was 0.5%. After 24 h incubation, the supernatant was collected to detect SEAP signal using Great EscAPe SEAP chemiluminescence KIT (Clontech, cat #631738) and cells were collected to detect cell viability using CellTiter-Glo Luminescent Cell Viability Assay (Promega, cat #G7573) following the manufacturer's instructions. The data were described by the ratio of the stimulating signal of compounds to 0.5% DMSO.

STING HAQ variant = biological target: T2, STING HAQ variant (Homo sapiens, UniProt Q86WV6, G230A/R293Q/R71H); test: SEAP reporter assay in HEK-Blue ISG KO-STING cells transfected with STING HAQ variant (Method 1); settings: 1 ng STING vector, compound 5 uM, 24 h, SEAP signal vs 0.5% DMSO
T2 construct: host or cells: HEK-Blue ISG KO-STING cells (Invivogen, hkb-kostg)
T2 sequence (Q86WV6 whole entry R71H/G230A/R293Q): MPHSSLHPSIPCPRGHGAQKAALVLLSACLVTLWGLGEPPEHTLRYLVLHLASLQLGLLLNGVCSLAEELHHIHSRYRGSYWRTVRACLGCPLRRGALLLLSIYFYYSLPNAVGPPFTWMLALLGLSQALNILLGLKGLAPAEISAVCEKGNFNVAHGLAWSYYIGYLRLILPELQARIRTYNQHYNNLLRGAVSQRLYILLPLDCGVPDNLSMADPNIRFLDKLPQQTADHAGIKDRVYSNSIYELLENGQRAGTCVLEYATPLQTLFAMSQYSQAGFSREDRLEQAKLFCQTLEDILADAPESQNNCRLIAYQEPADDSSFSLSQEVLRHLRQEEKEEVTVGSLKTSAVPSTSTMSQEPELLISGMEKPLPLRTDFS
Text: as §1

STING = STING (Homo sapiens, UniProt Q86WV6); test: IFN-β secretion from THP1 by STING activation (hIFNβ ELISA); settings: THP1 cells, 24 h incubation, IFN-β in supernatant, top dose set according to solubility; for EC50: read-out: hIFNβ ELISA (EC50)
Chain of STING (Q86WV6 whole entry): as the sequence (Q86WV6 whole entry R71H/G230A/R293Q) above, with H71R, A230G, Q293R counted along it
Procedure: In this assay, activation of STING by compounds was evaluated by detecting their ability to stimulate the secretion of IFN-β (interferon-beta) from THP1. THP1 was purchased from National Collection of Authenticated Cell Cultures (Cat #TCHu 57). The top dose of compounds was setted according to their solubility. First, Compounds were 3 times diluted with medium, 8-dose points in total. The final DMSO concentration was 0.2%. THP1 during the logarithmic phase was resuspended to 2×10^6 cells/ml in assay medium. The THP1-cell suspension was dispensed into a 96-well U bottom plate containing 50 ul of compound diluted in medium. After 24 h incubation at 37° C., 5% CO2, the supernatant was collected. The concentration of IFN-β in the supernatant was measured using a human IFNβ ELISA KIT (R&D, DY814-05). The data was fitted with GraphPad Prism or XLfit to calculate EC50 values.

Row | Structure (SMILES) | Fold change related to DMSO control WT (STING WT variant) | Fold change related to DMSO control HAQ (STING HAQ variant) | EC50 (STING) | hIFNβ ELISA (EC50, μM) (STING)
1 | CCn1nc(C)cc1C(=O)Nc1nc2cc(C(N)=O)cc(OCCCN(C)C(=O)CN3CCOCC3)c2n1CCC[C@H]1COc2cc(C(N)=O)cc3nc(NC(=O)c4cc(C)nn4CC)n1c23 [Example 29, (S)-3-(3-(5-carbamoyl-2-(1-ethyl-3-methyl-1H-pyrazole-5-carboxamido)-7-(3-(N-methyl-2-morpholinoacetamido)propoxy)-1H-benzo[d]imidazol-1-yl)propyl)-2-(1-ethyl-3-methyl-1H-pyrazole-5-carboxamido)-3,4-dihydro-5-oxa-1,2a-diazaacenaphthylene-7-carboxamide] | 1.99 | 27.10 | 6.7 µM | –
2 | CCn1nc(C)cc1C(=O)Nc1nc2cc(C(N)=O)cc(OCCCOC)c2n1CCC[C@H]1COc2cc(C#N)cc3nc(NC(=O)c4cc(C)nn4CC)n1c23 [Example 11, (S)-1-(3-(7-cyano-2-(1-ethyl-3-methyl-1H-pyrazole-5-carboxamido)-3,4-dihydro-5-oxa-1,2a-diazaacenaphthylen-3-yl)propyl)-2-(1-ethyl-3-methyl-1H-pyrazole-5-carboxamido)-7-(3-methoxypropoxy)-1H-benzo[d]imidazole-5-carboxamide] | 1.83 | 27.74 | – | –
3 | CCn1nc(C)cc1C(=O)Nc1nc2cc(C(N)=O)cc3c2n1[C@@H](CCCn1c(NC(=O)c2cc(C)nn2CCF)nc2cc(C(N)=O)cc(OCCCOC)c21)CO3 [Example 12, (S)-3-(3-(5-carbamoyl-2-(1-(2-fluoroethyl)-3-methyl-1H-pyrazole-5-carboxamido)-7-(3-methoxypropoxy)-1H-benzo[d]imidazol-1-yl)propyl)-2-(1-ethyl-3-methyl-1H-pyrazole-5-carboxamido)-3,4-dihydro-5-oxa-1,2a-diazaacenaphthylene-7-carboxamide] | 1.89 | 26.28 | > 9.1 µM | –
4 | CCn1nc(C)cc1C(=O)Nc1nc2cc(C(N)=O)cc(OCCCNS(C)(=O)=O)c2n1CCC[C@H]1COc2cc(C(N)=O)cc3nc(NC(=O)c4cc(C)nn4CC)n1c23 [Example 30, (S)-3-(3-(5-carbamoyl-2-(1-ethyl-3-methyl-1H-pyrazole-5-carboxamido)-7-(3-(methylsulfonamido)propoxy)-1H-benzo[d]imidazol-1-yl)propyl)-2-(1-ethyl-3-methyl-1H-pyrazole-5-carboxamido)-3,4-dihydro-5-oxa-1,2a-diazaacenaphthylene-7-carboxamide] | 1.96 | 33.34 | > 13 µM | –
5 | COCCCOc1cc(C(N)=O)cc2nc(NC(=O)c3cc(C)nn3CCF)n(CCC[C@H]3COc4cc(C(N)=O)cc5nc(NC(=O)c6cc(C)nn6CCF)n3c45)c12 [Example 10, (S)-3-(3-(5-carbamoyl-2-(1-(2-fluoroethyl)-3-methyl-1H-pyrazole-5-carboxamido)-7-(3-methoxypropoxy)-1H-benzo[d]imidazol-1-yl)propyl)-2-(1-(2-fluoroethyl)-3-methyl-1H-pyrazole-5-carboxamido)-3,4-dihydro-5-oxa-1,2a-diazaacenaphthylene-7-carboxamide] | 1.98 | 16.63 | – | inactive
6 | CCn1nc(C)cc1C(=O)Nc1nc2cc(C(N)=O)cc(OCCCOC)c2n1CCC[C@H]1COc2cc(C(N)=O)cc3nc(NC(=O)c4c(Br)c(C)nn4CC)n1c23 [Example 9, (S)-2-(4-bromo-1-ethyl-3-methyl-1H-pyrazole-5-carboxamido)-3-(3-(5-carbamoyl-2-(1-ethyl-3-methyl-1H-pyrazole-5-carboxamido)-7-(3-methoxypropoxy)-1H-benzo[d]imidazol-1-yl)propyl)-3,4-dihydro-5-oxa-1,2a-diazaacenaphthylene-7-carboxamide] | 2.27 | 14.14 | 2.6 µM | –
7 | CCn1nc(C)cc1C(=O)Nc1nc2cc(C(N)=O)cc(OCCOC)c2n1CCC[C@H]1COc2cc(C(N)=O)cc3nc(NC(=O)c4cc(C)nn4CC)n1c23 [Example 19, (S)-3-(3-(5-carbamoyl-2-(1-ethyl-3-methyl-1H-pyrazole-5-carboxamido)-7-(2-methoxyethoxy)-1H-benzo[d]imidazol-1-yl)propyl)-2-(1-ethyl-3-methyl-1H-pyrazole-5-carboxamido)-3,4-dihydro-5-oxa-1,2a-diazaacenaphthylene-7-carboxamide] | 2.33 | 60.17 | 6.2 µM | –
8 | CCn1nc(C)cc1C(=O)Nc1nc2cc(C(N)=O)cc(OCCCN(C)C(C)=O)c2n1CCC[C@H]1COc2cc(C(N)=O)cc3nc(NC(=O)c4cc(C)nn4CC)n1c23 [Example 27, (S)-3-(3-(5-carbamoyl-2-(1-ethyl-3-methyl-1H-pyrazole-5-carboxamido)-7-(3-(N-methylacetamido)propoxy)-1H-benzo[d]imidazol-1-yl)propyl)-2-(1-ethyl-3-methyl-1H-pyrazole-5-carboxamido)-3,4-dihydro-5-oxa-1,2a-diazaacenaphthylene-7-carboxamide] | 2.22 | 45.86 | 3.9 µM | –
9 | CCn1nc(C)c2c1C(=O)Nc1nc3cc(C(N)=O)cc(OCCCOC)c3n1CCC[C@H]1COc3cc(C(N)=O)cc4nc(n1c34)NC(=O)c1cc(C)nn1CCCCC2 [Example 59, (S)-17-ethyl-24-(3-methoxypropoxy)-8,15-dimethyl-6,18-dioxo-5,6,10,11,12,13,14,17, 18, 19, 26, 27, 27a,28-tetradecahydro-25H-29-oxa-4,4a1,5,9,9a,16, 17, 19, 20, 24b-decaazadicyclopenta[11, 12:18,19]indeno[1′,2′:7,8]cyclohenicosa[1,2,3-bc]acenaphthylene-2,22-dicarboxamide] | – | – | > 5.6 µM | –
10 | CCn1nc(C)cc1C(=O)Nc1nc2cc(C(N)=O)cc(OCCCN(C)C(=O)CN(C)C)c2n1CCC[C@H]1COc2cc(C(N)=O)cc3nc(NC(=O)c4cc(C)nn4CC)n1c23 [Example 28, (S)-3-(3-(5-carbamoyl-7-(3-(2-(dimethylamino)-N-methylacetamido)propoxy)-2-(1-ethyl-3-methyl-1H-pyrazole-5-carboxamido)-1H-benzo[d]imidazol-1-yl)propyl)-2-(1-ethyl-3-methyl-1H-pyrazole-5-carboxamido)-3,4-dihydro-5-oxa-1,2a-diazaacenaphthylene-7-carboxamide] | – | – | 11.7 µM | –
11 | CCn1nc(C)cc1C(=O)Nc1nc2cc(C(N)=O)cc(OCCCOC)c2n1CCC[C@H]1COc2cc(-c3nn[nH]n3)cc3nc(NC(=O)c4cc(C)nn4CC)n1c23 [Example 26, (S)-2-(1-ethyl-3-methyl-1H-pyrazole-5-carboxamido)-1-(3-(2-(1-ethyl-3-methyl-1H-pyrazole-5-carboxamido)-7-(2H-tetrazol-5-yl)-3,4-dihydro-5-oxa-1,2a-diazaacenaphthylen-3-yl)propyl)-7-(3-methoxypropoxy)-1H-benzo[d]imidazole-5-carboxamide] | – | – | – | inactive
12 | CCn1nc(C)c2c1C(=O)Nc1nc3cc(C(N)=O)cc4c3n1[C@@H](CCCn1c(nc3cc(C(N)=O)cc(OCCCOC)c31)NC(=O)c1cc(C)nn1CCCCC2)CO4 [Example 58, (S)-7-Ethyl-24-(3-methoxypropoxy)-9,16-dimethyl-6,18-dioxo-5,6,7,10,11,12,13,14,18,19,26,27,27a,28-tetradecahydro-25H-29-oxa-4,4a1,5,7,8,14a,15,19,20,24b-decaaza-dicyclopenta[11, 12:18,19]indeno[1′,2′:7,8]cyclohenicosa[1,2,3-bc]acenaphthylene-2,22-dicarboxamide] | – | – | > 4.3 µM | –
